Patent publication US20130315849A1, “USE OF 13-HYDROXY-9,11-OCTADECADIENOIC ACID FOR TANNING HUMAN SKIN” (EVONIK GOLDSCHMIDT GMBH, priority 2010, published 2013)

Assays:
IL-8 = test: UV-stimulated induction of IL-8 gene expression in keratinocytes (qRT-PCR); assay type: cell-based, human; settings: NHEKs, UV-B exposed, treated with 13-HODE as in Example 1; UV alone induction factor 11.2
Description: (§1) In the present example, the effect of 13-HODE on the expression of various proinflammatory marker genes in UV-B-stimulated keratinocytes (normal human epidermal keratinocytes, NHEKs) was investigated. The experimental procedure was largely identical to the procedure described in Example 1. Differences consisted merely in the selection of the gene-specific primers for carrying out the quantitative Real-Time PCR.

COX2 = test: UV-stimulated induction of COX2 gene expression in keratinocytes (qRT-PCR); assay type: cell-based, human; settings: NHEKs, UV-B exposed, treated with 13-HODE as in Example 1; UV alone induction factor 2.5
Description: as §1

TNF-α = test: UV-stimulated induction of TNF-α gene expression in keratinocytes (qRT-PCR); assay type: cell-based, human; settings: NHEKs, UV-B exposed, treated with 13-HODE as in Example 1; UV alone induction factor 7.4
Description: as §1

POMC [1] = test: Basal (not UV-induced) POMC gene expression in keratinocytes (qRT-PCR); assay type: cell-based, human; settings: NHEKs, 10 μg/ml 13-HODE, no UV, 24 h + 24 h; standardized to 18S rRNA
Protocol: In the present example, the effect of 13-HODE on the POMC gene expression was investigated in keratinocytes which, in contrast to Example 1, have not been stimulated by prior UV exposure. For this purpose, firstly primary human epidermal keratinocytes were prepared from neonatal foreskin. The procedure is described in the following publications: Grether-Beck et al., J Invest Dermatol 2005, 125: 545-553; Grether-Beck et al., Exp Dermatol 2008, 17: 771-779. […]
The isolation of the whole-RNA and also the subsequent analysis of the gene expression by means of quantitative Real Time PCR (qRT-PCR) was carried out as described previously (Grether-Beck et al., J Invest Dermatol 2005, 125: 545-553; Grether-Beck et al., Exp Dermatol 2008, 17: 771-779). […] The RNA concentration was determined by means of photometric measurement at 260/280 nm (Biophotometer, Eppendorf, Germany). […] Besides the POMC expression, the expression of the 18s rRNA gene was also quantitatively determined as a reference. […]
The PCR reactions were carried out on an Opticon 1 (MJ Research, Waltham, Mass., USA). For all PCRs, double determinations of the biological triplicates were carried out, and for the evaluation averages of all measurements were calculated. […]

human skin = test: Human in vivo study, maintenance of the skin tan (colorimetric skin colour); settings: 39 people, forearm, twice daily for 56 days, formulations with 0.1, 0.4, 1.0% 13-HODE vs formulation without
Protocol: In order to test to what extent 13-HODE has an influence on maintaining the skin tan, the maintenance of the summer tan under the influence of 13-HODE in test formulations was investigated in a clinical study. The study was carried out over a period of 8 weeks from mid-September to mid-November in Germany. The subject of the investigation was the skin colour by means of colorimetric measurements using a Skin-Colorimeter® CL 400 from Courage+Khazaka electronic GmbH, Cologne, Germany. The measurements were made in each case on the inside of the left and right forearm on a defined area measuring 3 cm×3 cm at a distance of 11-14 cm from the wrist. The average value, which resulted from the individual values of six to nine repeat measurements, was registered. 39 people aged 21-55 years participated, of which 28 were female and 11 male. In each case, the starting value of the skin colour TO was determined prior to the treatment and the value T8 was determined after treatment for 56 days with test formulations. The application frequency was twice daily, morning and evening. The test persons were given one formulation for the left arm and one for the right arm (formulation A, B, C, D; as per the table below).

POMC [2] = test: UV-B-induced POMC gene expression in keratinocytes (qRT-PCR); assay type: cell-based, human; settings: NHEKs, 3 μg/ml 13-HODE, 160 J/m^2 UV-B, harvest 6 h after exposure; standardized to 18S rRNA; UV alone factor 1.8; p<0.01
Protocol: In the present example, the effect of 13-HODE on the POMC gene expression in UV-B-stimulated keratinocytes (normal human epidermal keratinocytes, NHEKs) was investigated. For this purpose, firstly primary human epidermal keratinocytes were prepared from neonatal foreskin. The procedure is described in the following publications: Grether-Beck et al., J Invest Dermatol 2005, 125: 545-553; and Grether-Beck et al., Exp Dermatol 2008, 17: 771-779. […]
After cultivation for 24 hours, the cells were exposed to a dose of 160 J/m^2 of UV-B radiation. […] The emitted power was determined using an IL 1700 Research Radiometer and SEE 240 UV-B photodetector (International Light Inc., Newbury Port, Mass.) and was 2.4 W/m^2 at a distance of 22 cm. […]
Isolation of whole-RNA and subsequent analysis of the gene expression by means of quantitative Real Time PCR (qRT-PCR) was carried out as described previously (Grether-Beck et al., J Invest Dermatol 2005, 125: 545-553; Grether-Beck et al., Exp Dermatol 2008, 17: 771-779). […] The RNA concentration was determined by means of photometric measurement at 260/280 nm (Biophotometer, Eppendorf, Germany). […] Besides the POMC expression, the expression of the 18s rRNA gene was also determined quantitatively as a reference. […]

IL-6 = test: UV-stimulated induction of IL-6 gene expression in keratinocytes (qRT-PCR); assay type: cell-based, human; settings: NHEKs, UV-B exposed, treated with 13-HODE as in Example 1; UV alone induction factor 10.1
Description: as §1

CCCCCC(O)C=CC=CCCCCCCCC(=O)O (centres unmarked) [13-HODE, 13-hydroxy-9,11-octadecadienoic acid]
expression level of IL-8 in UV-exposed cells (IL-8): considerably reduced expression level | expression level of COX2 in UV-exposed cells (COX2): considerably reduced expression level | expression level of TNF-α in UV-exposed cells (TNF-α): considerably reduced expression level | basal (not UV-stimulated) POMC expression compared to the control treated with the vehicle (DMSO) (POMC [1]): 1.2 fold | decrease in the blue-yellow parameter b* of the skin colour (human skin): reduced to differing degrees | increase in the parameter ITA° of the skin colour (human skin): reduced to differing degrees | POMC expression increased by a factor compared to the untreated control (POMC [2]): 4.9 | expression level of IL-6 in UV-exposed cells (IL-6): considerably reduced expression level
